Read-outs that look alike come from different tables or passages of the source.
Assays:
α-amylase [1] = biological target: α-amylase; parameters: method as in Narita and Inouye (2011); conditions: substrate G2-pNP, pNP UV/Vis, ref Narita and Inouye (2011), cited from earlier work
α-amylase [2] = biological target: α-amylase; parameters: method as in Kaeswurm et al. (2019); conditions: substrate GalG2CNP, CNP UV/Vis, ref Kaeswurm et al. (2019), cited from earlier work
α-amylase [3] = conditions: substrate starch, DNS UV/Vis, cited from earlier work; for Ki: read-out: Kic
[4] = biological target: T1, porcine pancreatic α-amylase (Sus scrofa, UniProt P00690); assay: starch hydrolysis by α-amylase monitored by isothermal titration calorimetry (ITC); assay type: biochemical; conditions: for inhibition mechanism suggested by Kic/Kiu ratios: polyphenol standards
T1 sequence (P00690 16-511): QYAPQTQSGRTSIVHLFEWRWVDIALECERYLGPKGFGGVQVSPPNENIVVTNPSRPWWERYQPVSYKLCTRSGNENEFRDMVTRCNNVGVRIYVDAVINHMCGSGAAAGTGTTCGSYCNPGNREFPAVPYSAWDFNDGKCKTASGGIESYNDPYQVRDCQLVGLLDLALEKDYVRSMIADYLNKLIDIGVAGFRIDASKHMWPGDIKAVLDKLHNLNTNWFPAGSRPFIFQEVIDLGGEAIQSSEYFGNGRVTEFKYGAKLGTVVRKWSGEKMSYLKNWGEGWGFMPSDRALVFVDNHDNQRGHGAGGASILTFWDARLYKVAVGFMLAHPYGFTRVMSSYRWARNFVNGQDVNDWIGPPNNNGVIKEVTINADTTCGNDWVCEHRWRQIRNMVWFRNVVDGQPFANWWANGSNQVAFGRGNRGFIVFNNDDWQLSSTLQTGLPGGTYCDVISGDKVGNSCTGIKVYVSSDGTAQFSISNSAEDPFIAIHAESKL
Protocol: The amylase stock solution was diluted each day and stored during the day at 4 °C.
The experiments were conducted using an Affinity ITC LV instrument with a cell volume of 182 μL (TA Instruments, Eschborn, Germany). […] These controls were conducted to determine the optimal injection volume to achieve maximal velocity (vmax) (S11). […] Enzyme kinetic constants were determined at 310 K.
The heat released during starch conversion was continuously monitored, with calculations performed using Microsoft Excel® software. The enzymatic rate (v) is directly proportional to the measured thermal power (eq (1)).(1) v=dP/dt=1/Vcell·ΔRHapp·dQ/dt
The reaction enthalpy ( ΔRHapp ) is determined by integrating the heat peak over its entire duration, divided by the number of substrate molecules converted:(2) ΔRHapp=∫t=0∞dQ/dtdt/nS
(dQ/dt)max [%], ΔRHapp [%] und vmax [%] are calculated in relation to daily control.
The substrate concentration at time t ([S]t) is calculated according to eq (3).(3) [S]t=∫t∞dQ/dtdt/∫0∞dQ/dtdt·[S]t=0
Therefore, the thermogram contains all the required data for calculating inhibition constants. The maximal conversion rate vmax and the Michaelis-Menten constant Km are determined from control experiments conducted in the absence of an inhibitor. In the presence of an inhibitor [I] the apparent values of vmaxapp and Kmapp are obtained. Competitive inhibition (Kic, eq (5)) is due to the formation of an enzyme-inhibitor complex (EI), whereas uncompetitive inhibition (Kiu, eq (5)) occurs when an inhibitor binds to a […]:(5) Kic=vmaxapp/Kmapp·[I]/(vmax/Km)−(vmaxapp/Kmapp)Kiu=vmaxapp·[I]/vmax−vmaxapp
The IC50 value, a key pharmacological metric, is used to compare the potency of inhibitors. […] The conversion rate (v0) was calculated from the thermogram according to eq (1), and subsequently plotted against the […]

α-amylase [5] = biological target: α-amylase; parameters: key to Kic [μM] / Kiu [μM] / IC50 [μM]: “–” no inhibition; conditions: substrate starch, PAHBAH UV/Vis, cited from earlier work
α-amylase [6] = biological target: α-amylase; parameters: method as in Zheng et al. (2020); conditions: substrate starch, D-glucose assay UV/Vis, ref Zheng et al. (2020), cited from earlier work
[7] = ref Souza Schmidt Gonçalves et al. (2010)
[8] = 100 μM polyphenol, relative to control, read-out: vmax [%]
[9] = calculated based on the mass concentration
[10] = calculated based on the mass concentration, read-out: IC50 [g/L] (converted)
[11] = calculated based on the mass concentration, read-out: Kic [g/L] (converted)
[12] = calculated based on the mass concentration, read-out: Kiu [g/L] (converted)
[13] = competitive inhibition constant, substrate starch, ITC, 100 μM polyphenol (EGCG 25 μM), read-out: Kic
[14] = substrate starch, ITC, calculated by eq (6), substrate concentration of 1 M (IC50 equivalent to Kiu), read-out: IC50*
[15] = uncompetitive inhibition constant, substrate starch, ITC, 100 μM polyphenol (EGCG 25 μM), read-out: Kiu
[16] = 100 μM polyphenol, 26 nM α-amylase, starch, 310 K, relative to control without inhibitor, read-out: (dQ/dt)max [%]

SMILES | remaining activity at 100 µM [4, 8] [%] | α (Kic/Kiu) [4, 9] | IC50 [4, 10] [µM] | Ki [4, 11] [µM] | Ki [4, 12] [µM] | Ki [4, 13] [µM] | inhibition mechanism suggested by Kic/Kiu ratios [4] | inhibition type ([4]; substrate starch, ITC) | IC50 [4, 14] [µM] | Ki [4, 15] [µM] | remaining activity at 100 µM [4, 16] [%] | also measured
O=C(/C=C/c1ccc(O)c(O)c1)O[C@@H]1C[C@](O)(C(=O)O)C[C@@H](O)[C@H]1O [CA, Chlorogenic acid] | 72 ± 6 | 0.70 ± 0.03 | 198 | 198 | 282 | 195 ± 68 | preferentially bind to the enzyme | mixed | 278 ± 100 | 279 ± 100 |  | IC50 (α-amylase [1]): 400 µM; Ki (α-amylase [1]; read-out: Kic): 1120 µM; Ki (α-amylase [1]; read-out: Kiu): 270 µM; IC50 (α-amylase [2]): 413 µM; Ki (α-amylase [2]; read-out: Kic): 406 µM; Ki (α-amylase [2]; read-out: Kiu): 413 µM; IC50 (α-amylase [3]; [7]): 3.9 µM; remaining activity at 100 µM ([4]; read-out: (dQ/dt)max [%]): 77 ± 5%
Oc1cc(O)c2c(c1)O[C@H](c1ccc(O)c(O)c1)[C@@H](O)C2 [CAT, (+)-catechin] |  | 0.75 ± 0.40 |  |  |  |  |  |  |  |  |  | IC50 [4, 9]: 120 ± 50 µg/mL; Kic [4, 9]: 0.10 ± 0.06 g/L; Kiu [4, 9]: 0.14 ± 0.06 g/L
OC[C@H]1O[C@@H](Oc2cc3c(O)cc(O)cc3[o+]c2-c2ccc(O)c(O)c2)[C@H](O)[C@@H](O)[C@@H]1O [CYD-3-glc, cyanidin-3-O-glucoside] | 65 ± 4 | 0.71 ± 0.05 |  | 156 | 223 | 143 ± 30 | preferentially bind to the enzyme | mixed | 200 ± 34 | 201 ± 34 | 74 ± 10 | IC50 (α-amylase [3]; ref Akkarachiyasit et al., (2010)): 300 µM; IC50 (α-amylase [3]; ref Sui et al. (2016)): 240 µM; Ki (α-amylase [3]; ref Sui et al. (2016)): 140 µM; IC50 (α-amylase [5]; ref Le et al. (2024)): 340 µM; Ki (α-amylase [5]; ref Le et al. (2024), read-out: Kic): 390 µM; Ki (α-amylase [5]; ref Le et al. (2024), read-out: Kiu): 210 µM
Oc1cc(O)c2c(c1)O[C@H](c1ccc(O)c(O)c1)[C@H](O)C2 [EC, (−)-epicatechin] | 78 ± 4 | 0.74 ± 0.10 | 482 | 379 | 517 | 253 ± 47 | preferentially bind to the enzyme |  | 385 ± 82 | 385 ± 82 | 82 ± 8 | 
COc1cc(/C=C/C(=O)O)ccc1O [FA, ferulic acid] | 95 ± 3 | 0.67 ± 0.30 |  | 1240 | 2370 | 1240 ± 235 |  | mixed | 2350 ± 1470 | 2360 ± 1480 | 94 ± 12 | IC50 (α-amylase [1]): 5450 µM; Ki (α-amylase [1]; read-out: Kic): 11200 µM; Ki (α-amylase [1]; read-out: Kiu): 4870 µM; IC50 (α-amylase [3]; ref Aleixandre et al. (2022)): > 5150 µM; IC50 (α-amylase [6]): 3200 µM; Ki (α-amylase [6]; read-out: Kic): 3400 µM; Ki (α-amylase [6]; read-out: Kiu): 3630 µM
Oc1cc(O)c2c(c1)O[C@H](c1ccc(O)c(O)c1)[C@H](O)[C@H]2c1c(O)cc(O)c2c1O[C@H](c1ccc(O)c(O)c1)[C@@H](O)C2 [PC B1, procyanidin B1] | 66 ± 9 | 0.71 ± 0.20 | 190 | 156 | 225 | 155 ± 79 |  |  | 219 ± 91 | 219 ± 91 | 66 ± 14 | 
Oc1cc(O)c2c(c1)O[C@H](c1ccc(O)c(O)c1)[C@H](O)[C@H]2c1c(O)cc(O)c2c1O[C@H](c1ccc(O)c(O)c1)[C@H](O)C2 [PC B2, procyanidin B2] | 62 ± 4 | 0.94 ± 0.13 | 121 | 121 | 121 | 177 ± 39 |  |  | 173 ± 26 | 173 ± 26 | 56 ± 4 | reversibility of inhibition (from ΔRHapp) ([4]; 100 μM polyphenol (EGCG 25 μM)): irreversible aggregation
Oc1cc(O)c2c(c1)O[C@H](c1ccc(O)c(O)c1)[C@H](O)[C@H]2c1c(O)cc(O)c2c1O[C@H](c1ccc(O)c(O)c1)[C@H](O)[C@H]2c1c(O)cc(O)c2c1O[C@H](c1ccc(O)c(O)c1)[C@H](O)C2 [PC C1, procyanidin C1] | 50 ± 4 | 0.90 ± 0.12 | 104 | 92.3 | 104 | 94 ± 26 |  |  | 103 ± 16 | 103 ± 16 | 44 ± 4 | reversibility of inhibition (from ΔRHapp) ([4]; 100 μM polyphenol (EGCG 25 μM)): irreversible aggregation
O=C(CCc1ccc(O)cc1)c1c(O)cc(O)cc1O[C@@H]1O[C@H](CO)[C@@H](O)[C@H](O)[C@H]1O [PHL, phlorizin] | 89 ± 7 | 0.76 ± 0.08 | 504 | 412 | 573 | 418 ± 127 |  | mixed | 572 ± 145 | 573 ± 145 | 83 ± 4 | IC50 (α-amylase [2]): 391 µM; Ki (α-amylase [2]; read-out: Kic): 151 µM; Ki (α-amylase [2]; read-out: Kiu): 391 µM; IC50 [μM] (α-amylase [5]; ref Li et al. (2019)): –; Kic [μM] (α-amylase [5]; ref Li et al. (2019)): –; Kiu [μM] (α-amylase [5]; ref Li et al. (2019)): –
O=c1c(O[C@@H]2O[C@H](CO)[C@@H](O)[C@H](O)[C@H]2O)c(-c2ccc(O)c(O)c2)oc2cc(O)cc(O)c12 [Q-3-glc, quercetin-3-O-glucoside] | 63 ± 4 | 0.65 ± 0.07 | 151 | 108 | 172 | 115 ± 16 | preferentially bind to the enzyme | mixed | 178 ± 28 | 179 ± 28 | 72 ± 9 | Ki (α-amylase [3]; ref Li et al. (2009)): 5.35 µM
C[C@@H]1O[C@@H](OC[C@H]2O[C@@H](Oc3c(-c4ccc(O)c(O)c4)oc4cc(O)cc(O)c4c3=O)[C@H](O)[C@@H](O)[C@@H]2O)[C@H](O)[C@H](O)[C@H]1O [rutin, quercetin-3-O-rutinoside] | 92 ± 4 | 0.28 ± 0.12 | 770 | 360 | 1560 | 354 ± 55 | preferentially bind to the enzyme | mixed | 1540 ± 855 | 1560 ± 872 | 90 ± 6 | Ki (α-amylase [3]; ref Li et al. (2009)): 8.96 µM; IC50 (α-amylase [3]; [7]): 1.2 µM

— publication PMC12810351, “Structure-effect relationship of phenolic compounds on α-amylase inhibition studied by isothermal titration calorimetry” (Current Research in Food Science, 2025)
